Experiments:
[1] = Example 3: solubility and formulation stability in ester solvents
Method: Further formulation tests were carried out to ascertain if the fungicide IPBC (iodo propyl butyl carbamate, CAS No 55406-53-6) was soluble in ester compounds of formula (I).

[2] = Example 2: solvent evaporation rate from treated wood pieces (daily re-weighing); details: 17-22 °C, no external airflow
Method: The wood pieces were placed on plastic bearers allowing good access of air to all surfaces and situated in a dedicated room with no external airflow. Air temperatures in the room were mainly in the range 17-22° C.
The wood pieces were re-weighed daily to determine weight loss rates for the various solvents.

Compound	solubilisation in the esters of the invention [1]	% Solvent Remaining in Wood ([2]; After 24 h) [%]	% Solvent Remaining in Wood ([2]; After 48 h) [%]	% Solvent Remaining in Wood ([2]; After 72 h) [%]	solubility ([1]; in butyl ethanoate)	solubility ([1]; in propyl ethanoate)
CC(C)(C)C(O)(CCc1ccc(Cl)cc1)Cn1cncn1 (stereo not drawn) [tebuconazole]	good solubilisation					
CCOC(C)=O [ethyl ethanoate]		3.8	0	0		
N#Cc1c(Cl)c(Cl)c(Cl)c(C#N)c1Cl [chlorothalonil]					less than 1%	less than 1%
CCCCOC(C)=O [n-butyl ethanoate]		6.9	3.1	0.8		

Source: patent US8927063B2, “Compositions for the treatment of timber and other wood substrates” (TimTechChem International Limited, priority 2008, dated 2015)
